Values of other authors in patent publication US20260335281A1, “PHARMACEUTICAL COMPOSITION COMPRISING CENTANAFADINE” (OTSUKA PHARMACEUTICAL CO., LTD., priority 2022, published 2026).

Columns and labels:
[1] = tested on: norepinephrine (NE) reuptake
[2] = tested on: serotonin (5-HT) reuptake
[3] = fold less than against norepinephrine reuptake, background statement

SMILES: c1ccc2cc([C@]34CNC[C@H]3C4)ccc2c1 [(1R,5S)-1-(naphthalen-2-yl)-3-azabicyclo[3.1.0]hexane]
- effectiveness against dopamine (DA) reuptake, fold less (dopamine (DA) reuptake; [3]): 6 fold
- inhibition of dopamine reuptake (dopamine (DA) reuptake; in words, PL 1 (JP 5184354 B)): can inhibit the reuptake
- effectiveness against norepinephrine (NE) reuptake ([1]; compared with DA and 5-HT reuptake, background statement): most effective
- inhibition of norepinephrine reuptake ([1]; in words, PL 1 (JP 5184354 B)): can inhibit the reuptake
- effectiveness against serotonin (5-HT) reuptake, fold less [2, 3]: 14 fold
- inhibition of serotonin reuptake ([2]; in words, PL 1 (JP 5184354 B)): can inhibit the reuptake
